# Source: patent US6673625B2, “Saccharide sensing molecules having enhanced fluorescent properties” (The Regents of the University of California, priority 1999, dated 2004)
# Columns and labels:
# [1] = Rehm-Weller estimate of free energy of photoinduced electron transfer (PET); assay type: physicochemical
# Source text: The search for new fluorescent glucose transducers based on photoelectron transfer (PET) requires, among other things, an understanding of the electrochemistry of any potential donor-acceptor pair. The free energy of PET (ΔGel) can be calculated using the Rehm-Weller equation shown below:
# ΔGel(kcal mol^−1)=23.06[E^0(D^+/D)−E^0(A/A^−)]−wp−wr−ΔG00 where E^0(D^+/D) is the oxidation potential of the donor, E^0(A/A^−) is the reduction potential of the acceptor, and ΔG00 is the free energy corresponding to the equilibrium energy E00 (see e.g. Kavarnos, G. J. In Fundamentals of photoinduced electron transfer, VCH Publishers: New York, N.Y., 1993; p Chapter 1 and Rehm and Weller, Ist. J. Chem. 1970, 8, 259). The quantities wp and wr are Coulombic terms for the products and reactants, and ate found to be small in polar solvents. To simplify predictions, we assume wp and wr to be zero, and estimate E00 as the energy corresponding to [λmax(ex)+λmax(em)]/2 for each fluorophore.
# ΔGPET=23.06[E^0(Z^oxidation)−E^0(F^reduction)]−ΔE00],
# The electrochemical potentials can be measured using the individual molecular groups before assembling the complete molecule.
# Electrochemistry. The search for new fluorescent glucose transducers based on PET requires, among other things, an understanding of the electrochemistry of any potential donor-acceptor pair. The free energy of PET (ΔGel) can be calculated using the Rehm-Weller equation shown in eq 1, where E^0(D^+/D) is the oxidation potential of the […]
# ΔGe(kcal mol^−1)=23.06[E^0(D^+/D)−E^0(A/A^−)]−wp−wr−ΔG00 (1) donor, E^0(A/A^−) is the reduction potential of the acceptor, and ΔG00 is the free energy corresponding to the equilibrium energy E00. The quantities wp and wr are Coulombic terms for the products and reactants, and are found to be small in polar solvents. In our case, wr=0 since the reactants are neutral. To simplify predictions, we assume wp to be zero and estimate E00 as the energy corresponding to [λmax(ex)+λmax(em)]/2 for each fluorophore. […]
# it is possible to estimate the free energy of photoinduced electron transfer (PET) in these systems (see e.g. Kavamos, G. J. Fundamentals of Photoinduced Electron Transfer, VCH: New York, 1993; pp 37-40). E0(D^+/D) and E^0(A/A^−) correspond to the […] of the electron donor (i.e. amine) and electron acceptor (i.e. fluorophore), respectively. The quantity ΔG00, is the equilibrium energy, which we estimate as the energy corresponding to the equilibrium wavelength λ00. As an estimate of λ00, we use the average of the excitation and emission maxima for each fluorophore. Smaller solvent-dependent work terms for the Coulombic interaction between the reactants and products are left out for simplicity. Since the mechanism of fluorescence switching in these systems depends on PET, this gives us a rough estimate of which fluorophores should give the best response to glucose.
# [2] = Cyclic voltammetry (glassy carbon, Ag/AgCl reference, 0.1 M NBu4ClO4 in acetonitrile); assay type: physicochemical
# Experimental: Samples for FT IR spectroscopy were prepared as solutions in CHCl3, and only the C═O stretches are reported. Unless otherwise stated, all NMR spectra were recorded at 500 MHz for ^1H and 125 MHz for ^13C at 20-25° C. using CDCl3 as the solvent. Unless stated otherwise, mass spectra were obtained using electrospray ionization (50 V) with a 50/50 methanol/water solvent mixture with ^1% acetic acid added. Cyclic voltammetry was conducted using a glassy carbon working electrode, platinum counter electrode, and Ag/AgCl reference electrode and carried out in a 0.1 M solution of NBu4ClO4 in acetonitrile.
# Summarized Syntheses. As the syntheses are described as a series of analogous compounds with general procedures are given below. Cyclic voltammetry was conducted using a glassy carbon working electrode, platinum counter electrode, and Ag/AgCl reference electrode and carried out in a 0.1 M solution of NBu4ClO4 in acetonitrile. Samples for fluorescence were prepared as 1.00 mM stock solutions in MeOH. A 30.0 μL aliquot of solution was then added to 3.000 mL of the appropriate solvent mixture (a combination of methanol and phosphate buffered saline—PBS). Relative quantum yields were determined by the relative output of equimolar solutions of two compounds using 3ay as a reference. Glucose additions were performed by the addition of a concentrated solution of glucose in PBS to a stirred solution of the fluorescent molecule in methanol/PBS.
# General. All reactions were performed under an atmosphere of N2, followed by work-up in air. Protected boronate esters were stored under vacuum to prevent slow hydrolysis from atmospheric moisture. Unless stated otherwise, all chemicals were purchased from commercial suppliers. Anhydrous solvents from Aldrich were used for all reactions. Starting compounds known in the art such as N-n-butyl-4-chloronaphthalene-1,8-dicarboximide(1ax), 2,2-dimethylpropane-1,3-diyl[o-(bromomethyl) phenyl]boronate, were prepared by literature methods (see e.g. Daffy et al. Chem-Eur J 1998, 4, 1810-1815; de Silva et al., Chem Rev 1997, 97, 1515-1566). Samples for FT IR spectroscopy were prepared as solutions in CHCl3, and only the C═O stretches are reported here. All mass spectra were obtained using electrospray ionization (ESI/MS) with an ionization potential of 50V and a solvent system consisting of 1% acetic acid in 50/50 methanol/water. Cyclic voltammetry was conducted using a glassy carbon working electrode, platinum counter electrode, and Ag/AgCl reference electrode and carried out in a 0.1 M solution of NBu4ClO4 in acetonitrile. Samples for fluorescence measurements were prepared as 1.00 mM stock solutions in MeOH. A 30.0 μL aliquot of solution was then added to 3.000 mL of the appropriate solvent mixture (a combination of methanol and phosphate buffered saline—PBS) giving a final concentration of 10.0 μM for each complex. Changes in pH were carried out by the addition of small volumes of concentrated hydrochloric acid, acetic acid, or sodium hydroxide. Glucose additions were performed by the addition of a concentrated solution of glucose in PBS to a stirred solution of fluorophore in a cuvette. Relative quantum yield measurements were carried out by measuring the relative intensities of equimolar solutions (10.0 μM) of two fluorophores. Compound 3ay was used as the reference.
# [3] = Glucose sensitivity testing of chloro-oxazine-one boronate (COB); conditions: glucose zero to 600 mg/dL; 66% MeOH/buffer pH 7.4; 450/560 nm
# Experimental: To investigate the conjugated organic heterocyclic ring system compounds as fluorophores, an oxazine-one system was studied. An oxazine-one is described as a neutral (uncharged) precursor to a charged oxazine dye. The relevant values for the COB system for the Rehm-Weller equation are: ΔGPET=−12.1 kcal/mole, E^0(Z^ox)=0.88V, E^0(F^red)=−1.10V, and ΔE00=57.8 kcal/mole. The compound's response to glucose in several solvent systems was characterized. A stock solution of the compound was prepared by dissolving 5.7 mg in 5 mL of methanol. Samples were prepared by adding 30 μL of this stock solution to 3 mL of solvent.
# Glucose sensitivity testing was performed on the oxazine-one compound. Samples were prepared as described above and titrated with 30 μL aliquots of concentrated glucose solution (300 mg/mL). […] Following an initial period in which the baseline fluorescence level was determined, four 30 μL aliquots of glucose were introduced into the sample resulting in a final glucose concentration of approximately 1200 mg/dL. In this solvent system, glucose transduction yields a 45% increase in the fluorescence intensity as the glucose concentration is increased from zero to 600 mg/dL.
# COB's response was evaluated in several solvent systems. […]
# Based on these spectra, excitation and emission wavelengths of 450 nm and 560 nm, respectively, were chosen for subsequent steady-state fluorescence tests. […]
substance,measurement,setting,value
6-chloro-5H-benzo[a]phenoxazin-5-one boronate [COB],"ΔE00, energy of the excited state fluorophore",[1],57.8 kcal/mol
same,ΔGPET,[1]; simplified Rehm-Weller equation,-12.1 kcal/mol
same,"E^0(F^red), reduction potential of the fluorophore",[2],−1.10 V
same,"E^0(Z^ox), oxidation potential of the switch",[2],0.88 V
same,increase in the fluorescence intensity,[3],45%
